Measured values published in US10919911B2, “Tricyclic ASK1 inhibitors” (Terns, Inc., priority 2018, dated 2021).
pIC50: −log10 of the molar value.

These compounds were tested against ASK1 kinase (Homo sapiens (Human), UniProt Q99683) (assay: RBC Kinase Assay (33P-ATP radiometric, myelin basic protein substrate)). Conditions: 20 ng ASK1 kinase, MBP substrate, 120 min at room temperature, 1% DMSO.
ASK1 kinase, sequence (Q99683 whole entry): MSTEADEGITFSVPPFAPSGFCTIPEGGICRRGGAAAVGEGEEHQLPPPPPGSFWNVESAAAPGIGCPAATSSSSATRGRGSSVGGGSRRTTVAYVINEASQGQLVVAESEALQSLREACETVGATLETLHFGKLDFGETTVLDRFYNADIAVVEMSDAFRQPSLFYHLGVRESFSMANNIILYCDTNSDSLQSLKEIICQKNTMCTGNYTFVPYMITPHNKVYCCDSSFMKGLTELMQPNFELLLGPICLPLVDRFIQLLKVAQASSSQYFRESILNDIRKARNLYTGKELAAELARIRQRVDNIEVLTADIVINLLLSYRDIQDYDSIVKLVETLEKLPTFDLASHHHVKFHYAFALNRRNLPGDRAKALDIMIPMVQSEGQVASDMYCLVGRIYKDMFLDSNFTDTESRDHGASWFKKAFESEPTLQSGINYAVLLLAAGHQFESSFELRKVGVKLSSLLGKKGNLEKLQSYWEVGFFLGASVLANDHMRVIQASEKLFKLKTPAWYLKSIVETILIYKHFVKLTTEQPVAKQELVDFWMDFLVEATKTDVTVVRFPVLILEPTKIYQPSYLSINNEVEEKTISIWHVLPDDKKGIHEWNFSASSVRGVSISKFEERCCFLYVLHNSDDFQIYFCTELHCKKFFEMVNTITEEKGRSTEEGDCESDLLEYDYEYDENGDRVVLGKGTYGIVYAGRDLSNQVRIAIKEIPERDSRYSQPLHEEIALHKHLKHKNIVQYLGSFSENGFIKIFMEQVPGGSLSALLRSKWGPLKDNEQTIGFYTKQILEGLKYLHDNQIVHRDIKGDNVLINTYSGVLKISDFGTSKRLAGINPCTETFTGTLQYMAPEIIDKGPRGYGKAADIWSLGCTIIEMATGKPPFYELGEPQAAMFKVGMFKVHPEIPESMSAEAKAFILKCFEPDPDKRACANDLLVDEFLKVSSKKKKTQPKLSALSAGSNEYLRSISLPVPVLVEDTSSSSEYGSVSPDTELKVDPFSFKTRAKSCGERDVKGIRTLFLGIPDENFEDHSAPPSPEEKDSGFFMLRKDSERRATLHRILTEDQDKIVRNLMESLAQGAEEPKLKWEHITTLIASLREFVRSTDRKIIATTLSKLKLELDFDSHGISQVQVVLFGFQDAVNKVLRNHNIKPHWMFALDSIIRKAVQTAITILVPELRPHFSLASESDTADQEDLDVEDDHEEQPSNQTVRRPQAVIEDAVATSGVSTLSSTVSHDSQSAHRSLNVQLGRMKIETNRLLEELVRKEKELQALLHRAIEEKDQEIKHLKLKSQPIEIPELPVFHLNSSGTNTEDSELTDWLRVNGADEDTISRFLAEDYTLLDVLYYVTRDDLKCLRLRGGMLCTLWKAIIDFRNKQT
Type: biochemical
Method in brief: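 Radiometric filter-binding assay: 20 ng ASK1 with myelin basic protein in 20 mM Hepes pH 7.5, 10 mM MgCl2, 1 mM EGTA, 2 mM DTT, 1% DMSO; started with 33P-ATP, 120 min at room temperature. Reactions spotted on P81 paper, acid-washed, radioactivity counted; IC50 determined.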
`O=C(Nc1cccc2c1OCCn1nnnc1-2)c1cc(-n2cnc(C3CC3)c2)c(N2C[C@H]3C[C@@H]2CO3)cn1` [Example 62, 5-((1R,4R)-2-oxa-5-azabicyclo[2.2.1]heptan-5-yl)-4-(4-cyclopropyl-1H-imidazol-1-yl)-N-(5,6-dihydrobenzo[f]tetrazolo[1,5-d][1,4]oxazepin-8-yl)picolinamide] was tested, and the pIC50 was 8.29.
For `CC1(O)CCN(c2cnc(C(=O)Nc3cccc4c3OCCn3nnnc3-4)cc2-n2cnc(C3CC3)c2)C1` (centres unmarked) [Example 63, 4-(4-cyclopropyl-1H-imidazol-1-yl)-N-(5,6-dihydrobenzo[f]tetrazolo[1,5-d][1,4]oxazepin-8-yl)-5-(3-hydroxy-3-methylpyrrolidin-1-yl)picolinamide], the pIC50 was 8.57.
`O=C(Nc1cccc2c1OCCn1nnnc1-2)c1cc(-n2cnc(C3CC3)c2)c(N2C[C@@H]3C[C@H]2CO3)cn1` [Example 64, 5-((1S,4S)-2-oxa-5-azabicyclo[2.2.1]heptan-5-yl)-4-(4-cyclopropyl-1H-imidazol-1-yl)-N-(5,6-dihydrobenzo[f]tetrazolo[1,5-d][1,4]oxazepin-8-yl)picolinamide] gave a pIC50 of 8.41.
`C[C@H]1COCCN1c1cnc(C(=O)Nc2cccc3c2OCCn2nnnc2-3)cc1-n1cnc(C2CC2)c1` [Example 65, (S)-4-(4-cyclopropyl-1H-imidazol-1-yl)-N-(5,6-dihydrobenzo[f]tetrazolo[1,5-d][1,4]oxazepin-8-yl)-5-(3-methylmorpholino)picolinamide] was tested, and the pIC50 was 8.48.
`C[C@H]1CN(c2cnc(C(=O)Nc3cccc4c3OCCn3nnnc3-4)cc2-n2cnc(C3CC3)c2)CCO1` [Example 66, (S)-4-(4-cyclopropyl-1H-imidazol-1-yl)-N-(5,6-dihydrobenzo[f]tetrazolo[1,5-d][1,4]oxazepin-8-yl)-5-(2-methylmorpholino)picolinamide] was tested, and the pIC50 was 8.22.
In the case of `CC1(O)CN(c2cnc(C(=O)Nc3cccc4c3OCCn3nnnc3-4)cc2-n2cnc(C3CC3)c2)C1` [Example 67, 4-(4-cyclopropyl-1H-imidazol-1-yl)-N-(5,6-dihydrobenzo[f]tetrazolo[1,5-d][1,4]oxazepin-8-yl)-5-(3-hydroxy-3-methylazetidin-1-yl)picolinamide], the pIC50 was 8.59.
`CC(C)Oc1cnc(C(=O)Nc2cccc3c2OCCn2nnnc2-3)cc1-n1cnc(C2CC2)c1` [Example 68, 4-(4-cyclopropyl-1H-imidazol-1-yl)-N-(5,6-dihydrobenzo[f]tetrazolo[1,5-d][1,4]oxazepin-8-yl)-5-isopropoxypicolinamide] showed a pIC50 of 8.74.
`CC(C)Oc1cnc(C(=O)Nc2cccc3c2OC[C@@H](C)n2nnnc2-3)cc1-n1cnc(C2CC2)c1` [Example 69, (R)-4-(4-cyclopropyl-1H-imidazol-1-yl)-5-isopropoxy-N-(5-methyl-5,6-dihydrobenzo[f]tetrazolo[1,5-d][1,4]oxazepin-8-yl)picolinamide] was tested, and the pIC50 was 8.39.
In the case of `C[C@@H]1COCCN1c1cnc(C(=O)Nc2cccc3c2OCCn2nnnc2-3)cc1-n1cnc(C2CC2)c1` [Example 70, (R)-4-(4-cyclopropyl-1H-imidazol-1-yl)-N-(5,6-dihydrobenzo[f]tetrazolo[1,5-d][1,4]oxazepin-8-yl)-5-(3-methylmorpholino)picolinamide], the pIC50 was 8.66.
`CC(C)Oc1cnc(C(=O)Nc2cccc3c2OC[C@H](C)n2nnnc2-3)cc1-n1cnc(C2CC2)c1` [Example 71, (S)-4-(4-cyclopropyl-1H-imidazol-1-yl)-5-isopropoxy-N-(5-methyl-5,6-dihydrobenzo[f]tetrazolo[1,5-d][1,4]oxazepin-8-yl)picolinamide] gave a pIC50 of 8.28.
In the case of `Cc1cc(F)c(C(=O)Nc2cccc3c2OC2(CCC2)Cn2nnnc2-3)cc1-n1cnc(C2CC2)c1` [Example 72, 5-(4-cyclopropyl-1H-imidazol-1-yl)-2-fluoro-4-methyl-N-(5H-spiro[benzo[f]tetrazolo[1,5-d][1,4]oxazepine-6,1′-cyclobutan]-8-yl)benzamide], the pIC50 was 7.94.
For `CC(C)Oc1cnc(C(=O)Nc2cccc3c2OCCn2cnnc2-3)cc1-n1cnc(C2CC2)c1` [Example 73, 4-(4-cyclopropyl-1H-imidazol-1-yl)-N-(5,6-dihydrobenzo[f][1,2,4]triazolo[4,3-d][1,4]oxazepin-8-yl)-5-isopropoxypicolinamide], the pIC50 was 8.24.
Work on `Cc1cc(F)c(C(=O)Nc2cccc3c2OCCn2cnc(Br)c2-3)cc1-n1cnc(C2CC2)c1` [Example 74, N-(1-bromo-5,6-dihydrobenzo[f]imidazo[1,5-d][1,4]oxazepin-8-yl)-5-(4-cyclopropyl-1H-imidazol-1-yl)-2-fluoro-4-methylbenzamide] yielded a pIC50 of 7.40.
With `C[C@@H]1CN(c2cnc(C(=O)Nc3cccc4c3OC[C@@H](C)n3nnnc3-4)cc2-n2cnc(C3CC3)c2)CCO1` [Example 75, 4-(4-cyclopropyl-1H-imidazol-1-yl)-N—((R)-5-methyl-5,6-dihydrobenzo[f]tetrazolo[1,5-d][1,4]oxazepin-8-yl)-5-((R)-2-methylmorpholino)picolinamide] the pIC50 was 8.40.
Compound `C[C@@H]1CN(c2cnc(C(=O)Nc3cccc4c3OC[C@H](C)n3nnnc3-4)cc2-n2cnc(C3CC3)c2)CCO1` [Example 76, 4-(4-cyclopropyl-1H-imidazol-1-yl)-N—((S)-5-methyl-5,6-dihydrobenzo[f]tetrazolo[1,5-d][1,4]oxazepin-8-yl)-5-((R)-2-methylmorpholino)picolinamide] has a pIC50 of 8.49.
`C[C@@H]1COc2c(NC(=O)c3cc(-n4cnc(C5CC5)c4)c(N4CC[C@@H](O)C4)cn3)cccc2-c2nnnn21` [Example 77, 4-(4-cyclopropyl-1H-imidazol-1-yl)-5-((R)-3-hydroxypyrrolidin-1-yl)-N—((R)-5-methyl-5,6-dihydrobenzo[f]tetrazolo[1,5-d][1,4]oxazepin-8-yl)picolinamide] was tested, and the pIC50 was 8.33.
In the case of `C[C@H]1COc2c(NC(=O)c3cc(-n4cnc(C5CC5)c4)c(N4CC[C@@H](O)C4)cn3)cccc2-c2nnnn21` [Example 78, 4-(4-cyclopropyl-1H-imidazol-1-yl)-5-((R)-3-hydroxypyrrolidin-1-yl)-N—((S)-5-methyl-5,6-dihydrobenzo[f]tetrazolo[1,5-d][1,4]oxazepin-8-yl)picolinamide], the pIC50 was 8.33.
`Cc1cc(F)c(C(=O)Nc2cccc3c2OCCn2nnnc2-3)cc1-n1cnc(C2CC2)c1` [Example 79, 5-(4-cyclopropyl-1H-imidazol-1-yl)-N-(5,6-dihydrobenzo[f]tetrazolo[1,5-d][1,4]oxazepin-8-yl)-2-fluoro-4-methylbenzamide] showed a pIC50 of 8.18.
Work on `C[C@H]1COc2c(NC(=O)c3cc(-n4cnc(C5CC5)c4)ccn3)cccc2-c2nncn21` [Example 80, (S)-4-(4-cyclopropyl-1H-imidazol-1-yl)-N-(5-methyl-5,6-dihydrobenzo[f][1,2,4]triazolo[4,3-d][1,4]oxazepin-8-yl)picolinamide] yielded a pIC50 of 8.24.
With `Cc1cc(F)c(C(=O)Nc2cccc3c2OCC(CO)n2cnnc2-3)cc1-n1cnc(C2CC2)c1` (centres unmarked) [Example 81, 5-(4-cyclopropyl-1H-imidazol-1-yl)-2-fluoro-N-(5-(hydroxymethyl)-5,6-dihydrobenzo[f][1,2,4]triazolo[4,3-d][1,4]oxazepin-8-yl)-4-methylbenzamide] the pIC50 was 8.24.
